Columns and labels:
HCT116 cells = experiment: Flow cytometry cell cycle analysis; type: cell-based, human; conditions: HCT116, 24 h
Protocol: HCT116 cells were seeded onto 6-well plates (500,000 cells) and cultured overnight in complete medium at 37° C. with 5% CO2. After treatment with DMSO control or CL16 at the indicated concentration for 24 h, cells were harvested by trypsin digestion, washed with PBS, and fixed in 70% cold ethanol on ice for 30 minutes. The cells were then centrifuged at 250g for 5 min and resuspended in staining buffer (PBS with 0.05% Triton X-100) containing propidium iodide (50 μg/mL) and RNase (100 μg/mL) for 30 min at 37° C. in the dark. The cells were then filtered through a 40 μm strainer and analyzed by flow cytometry. Representative FACS plots were developed to illustrate the gating strategy in studying cell cycle. The NovoCyte Advanteon BVYG analyzer was used to acquire cell events, and the data were processed using NovoExpress software.
The molecular mechanisms of anticancer effects from CL16 were investigated. […] Immunoblotting of cell cycle checkpoint proteins in HCT116 cells underwent CL16 treatment for 24 h.

[1] = system: HCT116, HT29 and SW620 cells; experiment: Immunoblotting of cell cycle checkpoint proteins; type: cell-based, human; conditions: HCT116, HT29 and SW620, 24 h
Protocol: Anti-RhoA (#2117), anti-GAPDH (#2118), anti-phosphoMLC (#3671), anti-MLC (#3672), anti-FLAG (#8146), anti-GFP (#2956), and anti-GST (#2624) were purchased from Cell Signaling Technology. Cells were washed with PBS and then harvested using cell lysis buffer (1% Triton X100, 10 mM beta glycerol phosphate, 10 mM sodium pyrophosphate, 40 mM HEPES, 4 mM EDTA, pH7.4) with 4% protease/phosphatase inhibitor cocktail (Pierce). Protein samples were quantified using BCA assays (Pierce), normalized and then boiled with 4× Laemmli sampling buffer in 95° C. for 5 mins. Samples were resolved in 10% polyacrylamide gel (Biorad) and then transferred onto PVDF membrane (Biorad) and blocked with blocking buffer (5% bovine serum albumin (BSA) in Tris-buffered saline with 0.1% Tween 20 (TBST)) for 1 h. Membrane was washed in TBST, followed by incubation with corresponding primary antibodies (diluted 1:1000 in 5% BSA/milk in TBST with 1% NaN3) overnight at 4° C. […]
The effects of CL16 treatment on cell cycle checkpoint proteins were investigated with immunoblotting of the cell cycle checkpoint proteins in SW620 and HT29 cells after CL16 treatment for 24 h. […] Caspase- 3/7 Green Detection Reagent was used to study apoptosis in HCT116 cells treated with Rhosin by confocal fluorescence imaging. […]

RhoA WT = biological target: T1, RhoA WT (Homo sapiens, UniProt P61586); experiment: RhoA-GTP rhotekin pull-down in HT29 cells expressing RhoA WT; type: cell-based; conditions: 24 h
T1 construct: endogenous in cells; host or cells: HT29
T1 sequence (P61586 whole entry): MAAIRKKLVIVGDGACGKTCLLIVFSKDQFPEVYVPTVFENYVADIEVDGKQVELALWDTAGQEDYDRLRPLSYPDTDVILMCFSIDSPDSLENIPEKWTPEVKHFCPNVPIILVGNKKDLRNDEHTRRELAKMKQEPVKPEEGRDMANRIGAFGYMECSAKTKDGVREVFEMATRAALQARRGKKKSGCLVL
Protocol: (§1) RhoA Pull-Down Activation Assay Biochem Kit (#BK036) was purchased from Cytoskeleton. According to the manufacturer's protocol, total cell lysate (0.5 mg/mL; 300 μL) was added to 7.5 μL of Rhotekin-Rho Binding Domain beads in 0.6 mL tubes. The solution mixture was incubated at 4° C. on an end-to-end rotator for 1 hour. Beads were washed with 500 μL of washing buffer once, then centrifuged at 5000g for 3 min and the supernatant was discarded. RhoA-GTP was then eluted in 2× laemmli buffer and resolved in 10% SDS-PAGE.
The effects of CL16 in HT29 cells expressing RhoA WT protein and HT29 cells with RhoA C16 Å knock-in by CRISPR-Cas9 were investigated, respectively, to validate the molecular mechanism of RhoA inhibition and anti-cancer properties from CL16. […] HT29 cells expressing RhoA WT or C16 Å protein were incubated with solvent vehicle, CL16 or Rhosin in complete medium for 24 h. The cells were then washed, lysed, subjected to rhotekin pull-down and immunoblotted. […] Wound healing assay on HT29 cells expressing RhoA WT or C16 Å protein were incubated with solvent vehicle, CL16 or Rhosin in complete medium for 48 h (FIGS. 19A and 19B).

Cdc42 = Cdc42 (Homo sapiens, UniProt P60953); experiment: Cdc42-GTP PAK-PBD pull-down in HT29 cells; type: cell-based; design: endogenous in cells; host or cells: HT29; conditions: HT29, complete medium 24 h
Sequence of Cdc42 (P60953 whole entry): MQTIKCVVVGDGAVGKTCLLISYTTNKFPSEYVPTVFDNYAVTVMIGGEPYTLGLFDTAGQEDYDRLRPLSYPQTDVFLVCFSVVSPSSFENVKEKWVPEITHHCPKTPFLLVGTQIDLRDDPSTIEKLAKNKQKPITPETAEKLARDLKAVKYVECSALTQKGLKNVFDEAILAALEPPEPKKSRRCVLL
Description: The procedure is similar to that for RhoA-GTP assay, except that Rac1-GTP and Cdc42-GTP in CRC cells were first enriched by Rac1 Pull-Down Activation Assay Biochem Kit (Cytoskeleton #BK035) instead of using the RhoA kit. The enriched Rac1-GTP and Cdc42-GTP were then immunoblotted by Rac1/2/3 antibody (CST #2465) and Cdc42 antibody (CST #2462) respectively.
(§2) GTP loading onto RhoA is critical for the protein activation and mediating downstream signals. In view of the inhibitions of GDP-to-GTP exchange of RhoA by CL16 in vitro as discussed above, effects of CL16 on RhoA biology in colorectal cancer cells were examined. In the serum starvation-re-stimulation experiment, HCT116 cells were grown in serum-free medium with CL16, Rhosin or solvent control for 24 h, followed by stimulation with 10% FBS for 10 min. The cells were then lysed and the RhoA activity was assayed by the level of RhoA-GTP, which is the active form of RhoA. […] HT29 cells were incubated with solvent vehicle, CL16 or Rhosin in complete medium for 24 h. The cells were then washed, lysed and subjected to rhotekin pull-down for blotting RhoA-GTP, or PAK-PBD pull-down for blotting Rac1-GTP and Cdc42-GTP. Confocal fluorescence images from HCT116 and HT29 cells expressing FRET RhoA-biosensor in the serum starvation-restimulation experiment were taken.

RhoA = RhoA (Homo sapiens, UniProt P61586); experiment: RhoA-GTP rhotekin pull-down in HT29 cells, complete medium; type: cell-based; design: endogenous in cells; host or cells: HCT116, HT29; conditions: HT29, complete medium 24 h
Sequence of RhoA (P61586 whole entry): as the sequence (P61586 whole entry) above
Protocol: as §1
as §2, with “The cells were then washed, lysed and subjected to rhotekin pull-down for blotting RhoA-GTP, or PAK-PBD pull-down for blotting Rac1-GTP and Cdc42-GTP.” left out

SMILES: O=C(CCl)N1N=C(c2cc3ccccc3o2)CC1c1ccco1 (stereo not drawn) [CL16]
- G2 phase cell population (HCT116 cells): significant increase in G2 phase cell population
- cyclin A2 and cyclin B1 levels [1]: no significant changes
- p21 and p27 protein levels [1]: increase in p21 and p27 protein levels
- active RhoA-GTP level (RhoA WT): significant decrease in the active RhoA-GTP level
- Cdc42 activity (Cdc42-GTP) (Cdc42): no significant changes
- RhoA activity (RhoA-GTP) (RhoA): specific inhibition of RhoA activity

From patent US20250073209A1, “COVALENT TARGETING OF RhoA FOR CANCER THERAPY” (The University of Hong Kong, priority 2023, published 2025)
